Measured values published in patent US20230026696A1, “TRPV4 RECEPTOR LIGANDS” (UNIVERSITY OF UTAH RESEARCH FOUNDATION, priority 2019, published 2023).

Legend:
[1] = molecular target: T1, human TRPA1 (Homo sapiens, UniProt O75762); assay: Selectivity Ca2+ flux assay, TRPA1 stably over-expressed in HEK-293 cells; assay type: cell-based; conditions: agonist 2,4-ditert butylphenol (50 μM)
T1 construct: expressed in transfected cells
Protocol: (§1) To determine selectivity of the various test compounds for TRPV4, select compounds with activity in the TRPV4 fluorometric cell-based Ca^2+ flux assays were also tested for inhibition of human TRPA1 stably over-expressed in HEK-293 cells, TRPM8 stably over-expressed in HEK-293 cells, TRPV3 stably over-expressed in HEK-293 cells, and TRPV1 stably overexpressed in human lung epithelial (BEAS-2B) cells. The assays were conducted substantially as described above for HEK-293 cells that stably overexpress TRPV4, although for TRPV1, the BEAS-2B cells were maintained in LHC-9 media containing Geneticin (300 μg/mL) and were loaded with Fluo-4AM at room temperature. The agonist for TRPA1 was 2,4-ditert butylphenol (50 μM), for TRPM8 was icilin (50 μM), for TRPV3 was carvacrol (300 μM), and for TRPV1 was nonivamide (5 μM). All other aspects of the assay described above were the same.

[2] = molecular target: T2, human TRPV4 (Homo sapiens, UniProt Q9HBA0); assay: Fluorometric cell-based Ca2+ flux assay, HEK-293 cells stably overexpressing human TRPV4; conditions: for IC50: HEK-293 stably overexpressing human TRPV4, agonist GSK1016790A 30 nM
T2 construct: expressed in transfected cells
T2 sequence (Q9HBA0 whole entry): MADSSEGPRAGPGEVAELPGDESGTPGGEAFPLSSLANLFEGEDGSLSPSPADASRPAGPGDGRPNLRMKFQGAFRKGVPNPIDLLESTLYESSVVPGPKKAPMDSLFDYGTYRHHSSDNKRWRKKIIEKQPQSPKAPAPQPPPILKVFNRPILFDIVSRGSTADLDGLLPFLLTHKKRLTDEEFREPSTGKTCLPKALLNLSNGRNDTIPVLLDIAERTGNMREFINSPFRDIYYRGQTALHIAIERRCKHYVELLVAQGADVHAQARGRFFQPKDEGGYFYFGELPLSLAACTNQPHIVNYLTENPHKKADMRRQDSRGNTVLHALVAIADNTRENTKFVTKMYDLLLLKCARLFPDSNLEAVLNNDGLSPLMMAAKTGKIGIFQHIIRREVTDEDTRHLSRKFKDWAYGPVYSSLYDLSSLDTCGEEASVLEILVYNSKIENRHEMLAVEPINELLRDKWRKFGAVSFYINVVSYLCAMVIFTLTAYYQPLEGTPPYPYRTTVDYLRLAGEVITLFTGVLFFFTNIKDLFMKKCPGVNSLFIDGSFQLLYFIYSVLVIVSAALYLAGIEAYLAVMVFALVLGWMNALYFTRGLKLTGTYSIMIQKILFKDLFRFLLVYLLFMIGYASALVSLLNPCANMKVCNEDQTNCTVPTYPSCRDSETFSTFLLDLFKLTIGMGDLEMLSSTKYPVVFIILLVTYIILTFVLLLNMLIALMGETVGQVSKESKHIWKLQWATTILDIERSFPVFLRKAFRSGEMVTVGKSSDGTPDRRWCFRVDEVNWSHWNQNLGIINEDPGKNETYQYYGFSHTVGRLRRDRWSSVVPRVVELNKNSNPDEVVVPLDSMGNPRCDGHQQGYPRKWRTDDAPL
Method in brief: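 HEK-293 cells stably overexpressing human TRPV4, Fluo 4-loaded, pre-incubated 30 min at 37° C with compound, then stimulated with 30 nM GSK1016790A (final). Max ΔF/s over 1 min, media-corrected, expressed relative to no-antagonist control; IC50 from ≥8 concentrations, ≥3 replicates.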

[3] = molecular target: T3, TRPV1 (Homo sapiens, UniProt Q8NER1); assay: Selectivity Ca2+ flux assay, TRPV1 stably overexpressed in human lung epithelial (BEAS-2B) cells; assay type: cell-based; conditions: agonist nonivamide (5 μM)
T3 construct: expressed in transfected cells
T3 sequence (Q8NER1 whole entry): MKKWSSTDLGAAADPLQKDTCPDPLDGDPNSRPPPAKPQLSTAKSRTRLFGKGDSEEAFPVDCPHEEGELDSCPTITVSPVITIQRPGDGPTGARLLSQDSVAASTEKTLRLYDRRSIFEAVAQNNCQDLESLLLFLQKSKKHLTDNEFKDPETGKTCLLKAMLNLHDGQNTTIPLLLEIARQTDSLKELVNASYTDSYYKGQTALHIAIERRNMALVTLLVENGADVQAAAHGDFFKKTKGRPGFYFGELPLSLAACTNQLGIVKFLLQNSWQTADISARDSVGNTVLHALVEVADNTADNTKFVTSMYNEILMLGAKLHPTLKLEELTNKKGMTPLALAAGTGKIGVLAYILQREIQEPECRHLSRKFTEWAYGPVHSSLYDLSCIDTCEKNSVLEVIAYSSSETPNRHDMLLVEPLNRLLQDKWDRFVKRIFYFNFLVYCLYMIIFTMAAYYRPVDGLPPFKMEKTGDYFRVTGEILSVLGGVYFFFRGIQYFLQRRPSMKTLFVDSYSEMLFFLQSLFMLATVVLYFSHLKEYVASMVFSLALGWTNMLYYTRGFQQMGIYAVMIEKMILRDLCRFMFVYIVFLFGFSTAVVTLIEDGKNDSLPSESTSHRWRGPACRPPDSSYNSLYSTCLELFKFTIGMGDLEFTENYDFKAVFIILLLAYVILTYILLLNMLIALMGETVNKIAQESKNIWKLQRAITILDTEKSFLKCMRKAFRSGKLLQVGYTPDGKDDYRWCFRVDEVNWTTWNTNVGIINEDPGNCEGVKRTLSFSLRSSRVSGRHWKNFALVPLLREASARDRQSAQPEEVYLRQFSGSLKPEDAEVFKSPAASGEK
Protocol: as §1

[4] = system: intraocular pressure (IOP); assay: In vivo tonometric IOP assay in microbead mouse model of ocular hypertension; conditions: for IOP after single topical application: 1 μM and 10 μM, comparable to 0.5% timolol; for IOP after topical administration / protection of RGCs: mouse model of ocular hypertension, compounds 1 μM and 10 μM, timolol 0.5%; for IOP after topical administration: FIG. 1; for protection of RGCs: topical

T1 sequence (O75762 whole entry): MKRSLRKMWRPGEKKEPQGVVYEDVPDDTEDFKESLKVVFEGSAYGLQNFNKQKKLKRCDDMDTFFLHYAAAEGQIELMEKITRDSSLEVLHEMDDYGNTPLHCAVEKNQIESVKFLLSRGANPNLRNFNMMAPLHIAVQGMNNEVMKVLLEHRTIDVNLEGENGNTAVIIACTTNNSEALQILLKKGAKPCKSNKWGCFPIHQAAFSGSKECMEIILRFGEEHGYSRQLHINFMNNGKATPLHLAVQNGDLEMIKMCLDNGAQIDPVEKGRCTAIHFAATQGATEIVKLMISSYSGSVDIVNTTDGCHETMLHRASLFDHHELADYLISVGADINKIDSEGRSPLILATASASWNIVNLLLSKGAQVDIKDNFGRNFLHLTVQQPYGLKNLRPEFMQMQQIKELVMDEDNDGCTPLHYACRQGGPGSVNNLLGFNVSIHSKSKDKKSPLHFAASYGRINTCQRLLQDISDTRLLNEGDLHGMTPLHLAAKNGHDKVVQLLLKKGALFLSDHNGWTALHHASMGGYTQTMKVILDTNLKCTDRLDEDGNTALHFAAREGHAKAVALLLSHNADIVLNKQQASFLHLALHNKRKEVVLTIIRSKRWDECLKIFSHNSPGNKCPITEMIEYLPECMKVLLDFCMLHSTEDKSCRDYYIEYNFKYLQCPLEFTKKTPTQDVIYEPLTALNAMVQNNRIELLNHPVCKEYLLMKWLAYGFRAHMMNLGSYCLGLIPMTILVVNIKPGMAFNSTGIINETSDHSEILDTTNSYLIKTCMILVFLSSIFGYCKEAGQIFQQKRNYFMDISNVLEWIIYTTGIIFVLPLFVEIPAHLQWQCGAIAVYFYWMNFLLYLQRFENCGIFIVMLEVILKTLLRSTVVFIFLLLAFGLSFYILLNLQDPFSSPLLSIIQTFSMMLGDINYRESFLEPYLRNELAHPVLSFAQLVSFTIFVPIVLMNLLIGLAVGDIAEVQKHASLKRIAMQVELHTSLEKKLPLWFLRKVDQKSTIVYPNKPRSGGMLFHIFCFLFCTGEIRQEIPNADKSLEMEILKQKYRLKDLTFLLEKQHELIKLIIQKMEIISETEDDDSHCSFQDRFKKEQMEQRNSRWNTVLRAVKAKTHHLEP

N#Cc1ccc(OCC2(CO)CN(S(=O)(=O)c3ccc(Cl)cc3Cl)C2)cc1F [Compound 11, 4-((1-((2,4-Dichlorophenyl)sulfonyl)-3-(hydroxymethyl)azetidin-3-yl)methoxy)-2-fluorobenzonitrile]
IC50 [1]: 52 µM | IC50 [2]: 0.052 to 0.061 µM | selectivity for TRPV4 versus TRPA1, TRPM8, TRPV3 and TRPV1 ([2]; comparison of IC50 values): substantially more selective for TRPV4 | IC50 [3]: 24.3 µM | IOP after single topical application [4]: effectively lower IOP | IOP after topical administration [4]: lowered the IOP | protection of RGCs [4]: protected RGCs

Cl.N#Cc1ccc(OCC2(N)CN(S(=O)(=O)c3ccc(Cl)cc3Cl)C2)cc1F [Compound 52, 4-((3-Amino-1-((2,4-dichlorophenyl)sulfonyl)azetidin-3-yl)methoxy)-2-fluorobenzonitrile hydrochloride salt]
IC50 [1]: 89.6 µM | IC50 [2]: 0.024 to 0.066 µM | IC50 [3]: 60 µM | IOP after single topical application [4]: effectively lower IOP | IOP after topical administration [4]: lowered the IOP | protection of RGCs [4]: protected RGCs
